Structures are written as SMILES.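 Test compounds were applied to cells in 96-well plates for 48 hours at 5 doses. Abbreviation: GI50, concentration required for 50% inhibition of growth.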 Activity calls are given as the source filed them. Rule as the data show it: active = GI50 up to about 1.1 µM and inactive = higher.

From ChEMBL document CHEMBL1201862, “PubChem BioAssay data set” (2004) come the findings set out here.

What all share (assay): NCI-60 cell line screen, 48 h
In experiment [1] the test system is RXF 631.
The test system of experiment [2] is DLD-1.
Experiment [3] concerns HOP-18.
Experiment [4] relates to SNB-78.
Experiment [5] deals with DMS-273.
For experiment [6], the system named is DMS-114.
Experiment [7] has as its system M19-MEL.
For experiment [8], the system named is LXFL 529.
Experiment [9] deals with XF498.

For `Cc1c(C(=O)C/C(=N/NC(=O)C[n+]2ccccc2)C(=O)Nc2ccccc2)[n+]([O-])c2ccccc2[n+]1[O-]`, the GI50 in experiment [1], in [2], in experiment [3], in experiment [4], in [5] and in [6] was > 100 µM (inactive) throughout. For the same molecule, the GI50 in [7], in experiment [8] and in experiment [9] was > 100 µM (inactive) throughout.

On to `CC(=O)N1C(=O)C(=O)c2cc(Cl)ccc21`, for which the GI50 in experiment [1], in [2], in experiment [3], in [4], in [5] and in [6] was > 100 µM (inactive) in each case. Moreover, the GI50 in experiment [7] was > 100 µM (inactive); in [8] it was > 100 µM (inactive); in experiment [9], 0.234 µM (active).

Regarding `C=C1CC(CCCl)(c2ccccc2)OC1=O` (stereo unspecified), the GI50 in experiment [1] was > 42.7 µM (inactive); in [2], 20.1 µM (inactive); in experiment [3] it was > 42.9 µM (inactive); in experiment [4], 42.2 µM (inactive); in experiment [5], 34.7 µM (inactive); in experiment [6] it was 37.9 µM (inactive). In addition, the GI50 is 34.7 µM (inactive) in experiment [7], 20 µM (inactive) in experiment [8] and 41.2 µM (inactive) in [9].

As to `Cn1cnc([N+](=O)[O-])c1Sc1nnnn1-c1ccccc1`, the GI50 in [1] was 14.2 µM (inactive); in [2] it was 6.68 µM (inactive); in experiment [3], 1.58 µM (inactive); in experiment [4], 13.7 µM (inactive); in experiment [5] it was 15 µM (inactive); in experiment [6], 15.5 µM (inactive). In addition, the GI50 in [7] is 12.1 µM (inactive); in experiment [8] it was 4.27 µM (inactive); in experiment [9] it was 11.6 µM (inactive).
